Source: patent publication US20230026163A1, “ANTICANCER COMPOUND AND MEDICAL USE THEREOF” (ASCENTAWITS PHARMACEUTICALS, LTD., priority 2019, published 2023)
Read-outs that look alike come from different tables or passages of the source.

Experiments:
[1] = system: H460 non-small cell lung cancer; assay: Cytotoxicity test of human tumor cell line in vitro (CTG, 72 hours); type: cell-based; conditions: Homo sapiens, NCI-H460; H460, 72 hours exposure
Method: IC50 values were obtained by the following methods. The cancer cells were exposed to various concentrations of compounds for 72 hours. Following by washing steps, fresh medium was added to allow the growth of the cancer cells. The cancer cells were stained to obtain cell viability. Then, comparisons were made with the medium-only control.
Specifically, the exponentially growing cells were seeded in 96-well plates at a density of 2×10^3 cells/well, and 100 μL/well. The cells were incubated for 24 hours at 37° C., in 5% CO2, in 95% air, and 100% relative humidity. Next, 99 μL of culture medium was added. The compounds were dissolved in 100% DMSO at 200 times the desired final test concentration. Upon addition of compounds, the compounds were further diluted to 4 times the desired final concentration with a complete medium. Aliquots of 1 μL of compounds at specific concentration were added to the micro-wells containing 199 μL of medium to obtain the final compound concentrations as reported. After the compounds were added, the plates were incubated for an addition 72 hours at 37° C., in 5% CO2, in 95% air, and 100% relative humidity.
The plates to be test containing the cells were equilibrated at room temperature for 30 minutes, and 100 μL of medium per well was discarded. 100 μL of CTG reagent (CelltiterGlo Kit) was added to each well. The plates were placed in a fast-shaker to shake for 2 minutes, and placed at room temperature for 30 minutes in the dark. Chemoluminescence signal values were read with Envision instrument.

[2] = system: H460 cell line; assay: Hypoxia-dependent cytotoxicity experiment (2 hours exposure, air or N2, CTG); type: cell-based; conditions: Homo sapiens, then 3 days
Method: To determine the effect of the compounds of the present disclosure on cancer cell proliferation, these compounds were tested for cancer cell anti-proliferative activity in a porous CTG-based assay. Cell growth was compared in the present (treatment groups) and the absence of the test compound. 10,000 cells/well/495 μL of medium was used to test the following cell line, a human tumor cell line of H460 non-small cell lung cancer. The cells were seeded on glass-inserts located in each well of 24-well plates with a density and medium as specified above. 24 hours later, the plates were divided into 2 groups, hypoxia (using N2) group and air group. TH-302 at the concentrations from 100, 10, 0.1 to 0.01 μM, and the test compounds at the concentrations from 10, 1, 0.1, 0.01, 0.001 to 0.0001 were added to each well (500 μL volume) of the treatment groups. The final DMSO concentration in each well was lower than or equal to 1%. The cells in the hypoxia group were incubated for 2 hours in an ELECTROTEK hypoxia workstation. The cells in the air group were incubated for 2 hours in a standard culture incubator. 2 hours later, the test compounds were removed from each well. The cells were washed with 500 μL of medium and incubated in 500 μL of fresh medium for 3 days. 3 days later, 200 μL of medium per well was discarded. 60 μL of CTG was added to the wells, and the plates were placed at room temperature for 15 minutes in the dark. 100 μL of medium from each well of the 24-well plates was transferred to 96-well plates. The chemiluminescence signal values were read with an M5 full-band multi-mode-function microplate reader, and integration=750 ms. The compounds of control 1 and control 2 were used as controls.

O=[N+]([O-])c1ccc(C(OP(=O)(N2CC2)N2CC2)C(F)(F)F)c2ccccc12 (stereo not drawn) [Compound 01]
IC50 [1]: 0.128 µM
IC50 ([2]; NCI-H460, H460, air, read-out: Normoxia: IC50): 0.331 µM
IC50 ([2]; NCI-H460, H460, hypoxia (N2), read-out: N2: IC50): 0.0239 µM
